Source: patent publication US20250145640A1, “2,2-DIFLUORO-5H-[1,3]DIOXOLO[4,5-F]ISOINDOL-7-ONE DERIVATIVES AS PESTICIDES” (SYNGENTA CROP PROTECTION AG, priority 2021, published 2025)

Assays:
Format in all cases: in vivo
[1] = system: Spodoptera littoralis (Egyptian Cotton Leaf Worm); assay: Example B6: Activity against Spodoptera littoralis, sprayed cotton leaf discs on agar; conditions: foliar, 72 h, application rate 200 ppm, L1 larvae, assessed 3 days after infestation, read-out: control (at least one of mortality, anti-feedant effect, growth inhibition)
Description: Example B6: Activity Against Spodoptera littoralis (Egyptian Cotton Leaf Worm)
Cotton leaf discs were placed onto agar in 24-well microtiter plates and sprayed with aqueous test solutions prepared from 10′000 ppm DMSO stock solutions. After drying the leaf discs were infested with five L1 larvae. The samples were assessed for mortality, anti-feeding effect, and growth inhibition in comparison to untreated samples 3 days after infestation. Control of Spodoptera littoralis by a test sample is given when at least one of the categories mortality, anti-feedant effect, and growth inhibition is higher than the untreated sample.

[2] = system: Chilo suppressalis (Striped Rice Stemborer); assay: Example B1: Activity against Chilo suppressalis, artificial diet in 24-well microtiter plates; conditions: 144 h, application rate 200 ppm, L2 larvae, assessed 6 days after infestation, read-out: control (at least one of mortality, anti-feedant effect, growth inhibition)
Description: Example B1: Activity Against Chilo suppressalis (Striped Rice Stemborer)
24-well microtiter plates with artificial diet were treated with aqueous test solutions prepared from 10′000 ppm DMSO stock solutions by pipetting. After drying, the plates were infested with L2 larvae (6-8 per well). The samples were assessed for mortality, anti-feeding effect, and growth inhibition in comparison to untreated samples 6 days after infestation. Control of Chilo suppressalis by a test sample is given when at least one of the categories mortality, anti-feedant effect, and growth inhibition is higher than the untreated sample.

[3] = system: Myzus persicae (Green peach aphid); assay: Example B4: Activity against Myzus persicae, feeding/contact activity on sunflower leaf discs; conditions: foliar, 144 h, application rate 200 ppm, aphid population of mixed ages, assessed 6 days after infestation
Description: Example B4: Activity against Myzus persicae (Green peach aphid) Feeding/Contact activity Sunflower leaf discs were placed onto agar in a 24-well microtiter plate and sprayed with aqueous test solutions prepared from 10′000 ppm DMSO stock solutions. After drying, the leaf discs were infested with an aphid population of mixed ages. The samples were assessed for mortality 6 days after infestation.

[4] = system: Plutella xylostella (Diamond Back Moth); assay: Example B5: Activity against Plutella xylostella, artificial diet in 24-well microtiter plates; conditions: 192 h, application rate 200 ppm, eggs, assessed 8 days after infestation, read-out: effect in at least one of the two categories (mortality or growth inhibition)
Description: Example B5: Activity Against Plutella xylostella (Diamond Back Moth)
24-well microtiter plates with artificial diet were treated with aqueous test solutions prepared from 10′000 ppm DMSO stock solutions by pipetting. After drying, Plutella eggs were pipetted through a plastic stencil onto a gel blotting paper and the plate was closed with it. The samples were assessed for mortality and growth inhibition in comparison to untreated samples 8 days after infestation.

[5] = system: Diabrotica Balteata (Corn Root Worm); assay: Example B2: Activity against Diabrotica balteata, sprayed maize sprouts on agar; conditions: 96 h, application rate 200 ppm, L2 larvae, assessed 4 days after infestation, read-out: effect in at least one of the two categories (mortality or growth inhibition)
Description: Example B2: Activity Against Diabrotica Balteata (Corn Root Worm)
Maize sprouts placed onto an agar layer in 24-well microtiter plates were treated with aqueous test solutions prepared from 10′000 ppm DMSO stock solutions by spraying. After drying, the plates were infested with L2 larvae (6 to 10 per well). The samples were assessed for mortality and growth inhibition in comparison to untreated samples 4 days after infestation.

[6] = system: Euschistus heros (Neotropical Brown Stink Bug); assay: Example B3: Activity against Euschistus heros, sprayed soybean leaves on agar; conditions: 120 h, application rate 200 ppm, N2 nymphs, assessed 5 days after infestation, read-out: effect in at least one of the two categories (mortality or growth inhibition)
Description: Example B3: Activity Against Euschistus heros (Neotropical Brown Stink Bug)
Soybean leaves on agar in 24-well microtiter plates were sprayed with aqueous test solutions prepared from 10′000 ppm DMSO stock solutions. After drying the leaves were infested with N2 nymphs. The samples were assessed for mortality and growth inhibition in comparison to untreated samples 5 days after infestation.

CCS(=O)(=O)c1c(N2Cc3cc4c(cc3C2=O)OC(F)(F)O4)nc2ccc(C(F)(F)F)cn12 [P1, 6-[3-ethylsulfonyl-6-(trifluoromethyl)imidazo[1,2-a]pyridin-2-yl]-2,2-difluoro-5H-[1,3]dioxolo[4,5-f]isoindol-7-one]
≥ 80%: percent control (mortality, anti-feedant effect or growth inhibition) at 200 ppm [1] | control (mortality, anti-feedant effect or growth inhibition) at 200 ppm [2] | mortality at 200 ppm [3] | percent effect (mortality or growth inhibition) at 200 ppm [4] | percent effect (mortality or growth inhibition) at 200 ppm [5]

CCS(=O)(=O)c1c(N2Cc3cc4c(cc3C2=O)OC(F)(F)O4)nn2cc(C(F)(F)F)ccc12 [P3, 6-[3-ethylsulfonyl-6-(trifluoromethyl)pyrazolo[1,5-a]pyridin-2-yl]-2,2-difluoro-5H-[1,3]dioxolo[4,5-f]isoindol-7-one]
≥ 80%: percent control (mortality, anti-feedant effect or growth inhibition) at 200 ppm [1] | control (mortality, anti-feedant effect or growth inhibition) at 200 ppm [2] | mortality at 200 ppm [3] | percent effect (mortality or growth inhibition) at 200 ppm [4] | percent effect (mortality or growth inhibition) at 200 ppm [5]

CCS(=O)(=O)c1c(N2Cc3cc4c(cc3C2=O)OC(F)(F)O4)nc2cc(C(F)(F)F)ccn12 [P5, 6-[3-ethylsulfonyl-7-(trifluoromethyl)imidazo[1,2-a]pyridin-2-yl]-2,2-difluoro-5H-[1,3]dioxolo[4,5-f]isoindol-7-one]
≥ 80%: percent control (mortality, anti-feedant effect or growth inhibition) at 200 ppm [1] | control (mortality, anti-feedant effect or growth inhibition) at 200 ppm [2] | percent effect (mortality or growth inhibition) at 200 ppm [4] | percent effect (mortality or growth inhibition) at 200 ppm [5]

CCS(=O)(=O)c1c(N2Cc3cc4c(cc3C2=O)OC(F)(F)O4)nn2ccc(C(F)(F)F)cc12 [P6, 6-[3-ethylsulfonyl-5-(trifluoromethyl)pyrazolo[1,5-a]pyridin-2-yl]-2,2-difluoro-5H-[1,3]dioxolo[4,5-f]isoindol-7-one]
≥ 80%: percent control (mortality, anti-feedant effect or growth inhibition) at 200 ppm [1] | control (mortality, anti-feedant effect or growth inhibition) at 200 ppm [2] | percent effect (mortality or growth inhibition) at 200 ppm [4] | percent effect (mortality or growth inhibition) at 200 ppm [5]

CCS(=O)(=O)c1c(N2Cc3cc4c(cc3C2=O)OC(F)(F)O4)nc2ccc(C(C)(F)F)cn12 [P7, 6-[6-(1,1-difluoroethyl)-3-ethylsulfonyl-imidazo[1,2-a]pyridin-2-yl]-2,2-difluoro-5H-[1,3]dioxolo[4,5-f]isoindol-7-one]
≥ 80%: percent control (mortality, anti-feedant effect or growth inhibition) at 200 ppm [1] | control (mortality, anti-feedant effect or growth inhibition) at 200 ppm [2] | percent effect (mortality or growth inhibition) at 200 ppm [4] | percent effect (mortality or growth inhibition) at 200 ppm [5]

CCS(=O)(=O)c1c(N2Cc3cc4c(cc3C2=O)OC(F)(F)O4)nc2cc(C(C)(F)F)ccn12 [P8, 6-[7-(1,1-difluoroethyl)-3-ethylsulfonyl-imidazo[1,2-a]pyridin-2-yl]-2,2-difluoro-5H-[1,3]dioxolo[4,5-f]isoindol-7-one]
≥ 80%: percent control (mortality, anti-feedant effect or growth inhibition) at 200 ppm [1] | control (mortality, anti-feedant effect or growth inhibition) at 200 ppm [2] | percent effect (mortality or growth inhibition) at 200 ppm [4] | percent effect (mortality or growth inhibition) at 200 ppm [5]

CCS(=O)(=O)c1c(N2Cc3cc4c(cc3C2=O)OC(F)(F)O4)nc2cc(Br)ccn12 [P9, 6-(7-bromo-3-ethylsulfonyl-imidazo[1,2-a]pyridin-2-yl)-2,2-difluoro-5H-[1,3]dioxolo[4,5-f]isoindol-7-one]
≥ 80%: percent control (mortality, anti-feedant effect or growth inhibition) at 200 ppm [1] | control (mortality, anti-feedant effect or growth inhibition) at 200 ppm [2] | percent effect (mortality or growth inhibition) at 200 ppm [4] | percent effect (mortality or growth inhibition) at 200 ppm [5]

CCS(=O)(=O)c1c(N2Cc3cc4c(cc3C2=O)OC(F)(F)O4)nc2ccc(Br)cn12 [P10, 6-(6-bromo-3-ethylsulfonyl-imidazo[1,2-a]pyridin-2-yl)-2,2-difluoro-5H-[1,3]dioxolo[4,5-f]isoindol-7-one]
≥ 80%: control (mortality, anti-feedant effect or growth inhibition) at 200 ppm [2]

CCS(=O)(=O)c1c(N2Cc3cc4c(cc3C2=O)OC(F)(F)O4)nc2ccc(Cl)cn12 [P11, 6-(6-chloro-3-ethylsulfonyl-imidazo[1,2-a]pyridin-2-yl)-2,2-difluoro-5H-[1,3]dioxolo[4,5-f]isoindol-7-one]
≥ 80%: percent control (mortality, anti-feedant effect or growth inhibition) at 200 ppm [1] | control (mortality, anti-feedant effect or growth inhibition) at 200 ppm [2] | percent effect (mortality or growth inhibition) at 200 ppm [6] | percent effect (mortality or growth inhibition) at 200 ppm [4] | percent effect (mortality or growth inhibition) at 200 ppm [5]

CCS(=O)(=O)c1c(N2Cc3cc4c(cc3C2=O)OC(F)(F)O4)nn2cc(Br)ccc12 [P12, 6-(6-bromo-3-ethylsulfonyl-pyrazolo[1,5-a]pyridin-2-yl)-2,2-difluoro-5H-[1,3]dioxolo[4,5-f]isoindol-7-one]
≥ 80%: percent control (mortality, anti-feedant effect or growth inhibition) at 200 ppm [1] | control (mortality, anti-feedant effect or growth inhibition) at 200 ppm [2] | mortality at 200 ppm [3] | percent effect (mortality or growth inhibition) at 200 ppm [4] | percent effect (mortality or growth inhibition) at 200 ppm [5]

CCS(=O)(=O)c1c(N2Cc3cc4c(cc3C2=O)OC(F)(F)O4)nc2cc(Cl)ccn12 [P13, 6-(7-chloro-3-ethylsulfonyl-imidazo[1,2-a]pyridin-2-yl)-2,2-difluoro-5H-[1,3]dioxolo[4,5-f]isoindol-7-one]
≥ 80%: percent control (mortality, anti-feedant effect or growth inhibition) at 200 ppm [1] | control (mortality, anti-feedant effect or growth inhibition) at 200 ppm [2] | percent effect (mortality or growth inhibition) at 200 ppm [4] | percent effect (mortality or growth inhibition) at 200 ppm [5]

CCS(=O)(=O)c1c(N2Cc3cc4c(cc3C2=O)OC(F)(F)O4)nn2cc(Cl)ccc12 [P14, 6-(6-chloro-3-ethylsulfonyl-pyrazolo[1,5-a]pyridin-2-yl)-2,2-difluoro-5H-[1,3]dioxolo[4,5-f]isoindol-7-one]
≥ 80%: percent control (mortality, anti-feedant effect or growth inhibition) at 200 ppm [1] | control (mortality, anti-feedant effect or growth inhibition) at 200 ppm [2] | mortality at 200 ppm [3] | percent effect (mortality or growth inhibition) at 200 ppm [4] | percent effect (mortality or growth inhibition) at 200 ppm [5]

CCS(=O)(=O)c1c(N2Cc3cc4c(cc3C2=O)OC(F)(F)O4)nc2cc(I)ccn12 [P16, 6-(3-ethylsulfonyl-7-iodo-imidazo[1,2-a]pyridin-2-yl)-2,2-difluoro-5H-[1,3]dioxolo[4,5-f]isoindol-7-one]
≥ 80%: percent control (mortality, anti-feedant effect or growth inhibition) at 200 ppm [1] | control (mortality, anti-feedant effect or growth inhibition) at 200 ppm [2] | percent effect (mortality or growth inhibition) at 200 ppm [4] | percent effect (mortality or growth inhibition) at 200 ppm [5]

CCS(=O)(=O)c1c(N2Cc3cc4c(cc3C2=O)OC(F)(F)O4)nc2ccc(I)cn12 [P17, 6-(3-ethylsulfonyl-6-iodo-imidazo[1,2-a]pyridin-2-yl)-2,2-difluoro-5H-[1,3]dioxolo[4,5-f]isoindol-7-one]
≥ 80%: percent control (mortality, anti-feedant effect or growth inhibition) at 200 ppm [1] | control (mortality, anti-feedant effect or growth inhibition) at 200 ppm [2] | percent effect (mortality or growth inhibition) at 200 ppm [4] | percent effect (mortality or growth inhibition) at 200 ppm [5]
